This note sets out measurements from patent US10752624B2, “Kinase inhibitors” (Origenis GmbH, priority 2012, dated 2020).

SMILES strings stand for the structures.

As a reminder, the IC50 is the concentration that gives 50% inhibition.

Assay [1] has as its target T1, SYK kinase (Homo sapiens, UniProt P43405).
T1 construct: purchased Invitrogen, Carlsbad
Briefly: SYK Assay (OMNIA Kinase Assay, SOX peptide fluorescence). It counts as biochemical. The note with it: 1 mM ATP, 10 μM Omnia Peptide Substrate Tyr 7, 30° C., readings for 30 minutes; read-out: SYK Activities: IC50. A digest of the protocol: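 The reaction was run at 30 °C with 1 mM ATP, 0.2 mM DTT and 10 μM Omnia Tyr 7 peptide (final) and started by adding SYK. Chelation-enhanced SOX fluorescence (ex 360/em 485 nm) was read every 30 s for 30 min. Reaction velocity versus inhibitor concentration was fitted sigmoidally for IC50.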

In assay [2] the target is LRRK2 (Homo sapiens, UniProt Q5S007). Briefly: LRRK2-LRRK2 G2019S-Assay (LanthaScreen Eu Kinase Binding Assay). Particulars: 5 nM LRRK2, 10 nM tracer 236, 2 nM EU-Anti-GST antibody, 1 h at RT; read-out: LRRK2 Activities: IC50. A digest of the protocol: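 Compound competition with Alexa Fluor 647 tracer 236 (10 nM) was measured after 1 h at room temperature, using 5 nM LRRK2 (wild type or mutant) bound to 2 nM Eu-anti-GST antibody. IC50 was derived from the acceptor/donor (665/615 nm) ratio using a variable-slope dose-response fit.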
Chain of LRRK2 (Q5S007 970-2527 limits assumed): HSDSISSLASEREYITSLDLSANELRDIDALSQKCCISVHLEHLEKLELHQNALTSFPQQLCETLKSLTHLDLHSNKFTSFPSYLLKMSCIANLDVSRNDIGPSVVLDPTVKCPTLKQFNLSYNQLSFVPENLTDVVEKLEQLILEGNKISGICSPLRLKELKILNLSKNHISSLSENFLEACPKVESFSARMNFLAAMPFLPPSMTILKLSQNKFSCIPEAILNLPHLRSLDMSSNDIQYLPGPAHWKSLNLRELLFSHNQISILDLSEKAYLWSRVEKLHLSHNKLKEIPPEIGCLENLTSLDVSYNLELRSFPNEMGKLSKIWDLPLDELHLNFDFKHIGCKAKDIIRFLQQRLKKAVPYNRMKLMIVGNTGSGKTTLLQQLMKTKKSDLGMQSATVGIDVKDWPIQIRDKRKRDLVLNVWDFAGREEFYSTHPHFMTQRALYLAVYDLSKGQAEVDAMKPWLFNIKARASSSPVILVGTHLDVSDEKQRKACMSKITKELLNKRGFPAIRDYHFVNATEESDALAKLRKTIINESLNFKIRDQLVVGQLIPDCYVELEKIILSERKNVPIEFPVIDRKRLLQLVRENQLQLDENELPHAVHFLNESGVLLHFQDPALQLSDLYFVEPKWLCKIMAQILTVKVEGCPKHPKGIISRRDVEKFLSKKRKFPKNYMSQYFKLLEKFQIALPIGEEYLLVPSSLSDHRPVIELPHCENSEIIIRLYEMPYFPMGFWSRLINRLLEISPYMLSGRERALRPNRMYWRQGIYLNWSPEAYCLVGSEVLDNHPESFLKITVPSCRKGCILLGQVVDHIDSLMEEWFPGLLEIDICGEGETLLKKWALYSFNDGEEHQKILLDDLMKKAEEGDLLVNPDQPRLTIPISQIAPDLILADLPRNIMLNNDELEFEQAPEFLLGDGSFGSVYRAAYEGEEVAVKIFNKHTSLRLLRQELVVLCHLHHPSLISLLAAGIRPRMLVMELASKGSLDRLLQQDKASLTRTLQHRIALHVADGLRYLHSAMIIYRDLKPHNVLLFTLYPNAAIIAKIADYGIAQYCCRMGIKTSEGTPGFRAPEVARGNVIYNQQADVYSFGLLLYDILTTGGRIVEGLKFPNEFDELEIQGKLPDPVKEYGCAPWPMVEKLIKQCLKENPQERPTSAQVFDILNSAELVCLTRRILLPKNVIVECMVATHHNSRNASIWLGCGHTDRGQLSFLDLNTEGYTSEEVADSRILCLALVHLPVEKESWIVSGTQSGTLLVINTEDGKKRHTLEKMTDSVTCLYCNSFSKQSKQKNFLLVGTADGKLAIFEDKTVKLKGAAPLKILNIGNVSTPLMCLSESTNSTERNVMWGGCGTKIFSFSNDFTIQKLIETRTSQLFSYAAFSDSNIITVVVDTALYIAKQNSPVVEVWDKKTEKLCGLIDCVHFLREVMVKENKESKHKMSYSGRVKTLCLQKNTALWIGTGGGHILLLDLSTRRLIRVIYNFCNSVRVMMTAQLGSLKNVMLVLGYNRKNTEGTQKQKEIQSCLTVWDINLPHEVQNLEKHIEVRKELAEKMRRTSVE

Turning to `CC(=O)N1CCC(n2cc(Nc3nc4cc(S(C)(=O)=O)ccc4c4cn[nH]c34)cn2)CC1` [Example 168, 1-(4-(4-((7-(methylsulfonyl)-3H-pyrazolo[3,4-c]quinolin-4-yl)amino)-1H-pyrazol-1-yl)piperidin-1-yl)ethan-1-one], the IC50 in assay [1] and in assay [2] was 10 to 100 nM in each case.
For `COCCn1cc(Nc2nc3cc(S(C)(=O)=O)ccc3c3cn[nH]c23)cn1` [Example 170, N-(1-(2-methoxyethyl)-1H-pyrazol-4-yl)-7-(methylsulfonyl)-3H-pyrazolo[3,4-c]quinolin-4-amine], the half-maximal inhibitory concentration (IC50) in assay [1] and in assay [2] was 100 to 1000 nM in each case.
In the case of `COCCn1cc(Nc2nc3cc(SC)ccc3c3cn[nH]c23)cn1` [Example 171, N-(1-(2-methoxyethyl)-1H-pyrazol-4-yl)-7-(methylthio)-3H-pyrazolo[3,4-c]quinolin-4-amine], the IC50 in assay [1] and in assay [2] was 100 to 1000 nM throughout.
Turning to `CC(C)(C#N)n1cc(Nc2nc3ccc(S(C)(=O)=O)cc3c3cn[nH]c23)cn1` [Example 172, 2-methyl-2-(4-((8-(methylsulfonyl)-3H-pyrazolo[3,4-c]quinolin-4-yl)amino)-1H-pyrazol-1-yl)propanenitrile], the values for the IC50 in assay [1] and in assay [2] were below 10 nM and 10 to 100 nM, respectively.
`CS(=O)(=O)c1ccc2nc(Nc3cnn(C4COC4)c3)c3[nH]ncc3c2c1` [Example 173, 8-(methylsulfonyl)-N-(1-(oxetan-3-yl)-1H-pyrazol-4-yl)-3H-pyrazolo[3,4-c]quinolin-4-amine]: the IC50 in assay [1] was below 10 nM; in assay [2] it was 10 to 100 nM.
Taken in the same sequence, the figures for `CS(=O)(=O)c1ccc2nc(Nc3ccc(C(=O)N4CCOCC4)c(F)c3)c3[nH]ncc3c2c1` [Example 175, (2-fluoro-4-((8-(methylsulfonyl)-3H-pyrazolo[3,4-c]quinolin-4-yl)amino)phenyl)(morpholino)methanone] were 100 to 1000 nM and 10 to 100 nM.
Taken in the same sequence, the figures for `COCCCn1cc(Nc2nc3ccc(S(C)(=O)=O)cc3c3cn[nH]c23)cn1` [Example 178, N-(1-(3-methoxypropyl)-1H-pyrazol-4-yl)-8-(methylsulfonyl)-3H-pyrazolo[3,4-c]quinolin-4-amine] were 10 to 100 nM and below 10 nM.
For `CS(=O)(=O)c1ccc2nc(Nc3cnn(C4(C#N)CCCCC4)c3)c3[nH]ncc3c2c1` [Example 179, 1-(4-((8-(methylsulfonyl)-3H-pyrazolo[3,4-c]quinolin-4-yl)amino)-1H-pyrazol-1-yl)cyclohexanecarbonitrile], the figures for the concentration for half-maximal inhibition (IC50) in assay [1] and in assay [2] were 10 to 100 nM and below 10 nM, respectively.
For `CC(C)n1cc(Nc2nc3ccc(S(C)(=O)=O)cc3c3cn[nH]c23)cn1` [Example 180, N-(1-isopropyl-1H-pyrazol-4-yl)-8-(methylsulfonyl)-3H-pyrazolo[3,4-c]quinolin-4-amine] the same measures were below 10 nM and below 10 nM.
For `COc1cccc2nc(Nc3cnn(C(C)C)c3)c3[nH]ncc3c12` [Example 182, N-(1-isopropyl-1H-pyrazol-4-yl)-9-methoxy-3H-pyrazolo[3,4-c]quinolin-4-amine] the same measures were 10 to 100 nM and below 10 nM.
Taken in the same sequence, the figures for `COCCCn1cc(Nc2nc3cccc(OC)c3c3cn[nH]c23)cn1` [Example 183, 9-methoxy-N-(1-(3-methoxypropyl)-1H-pyrazol-4-yl)-3H-pyrazolo[3,4-c]quinolin-4-amine] were 100 to 1000 nM and below 10 nM.
For the compound `COc1cccc2nc(Nc3cnn(C(C)(C)C#N)c3)c3[nH]ncc3c12` [Example 184, 2-(4-((9-methoxy-3H-pyrazolo[3,4-c]quinolin-4-yl)amino)-1H-pyrazol-1-yl)-2-methylpropanenitrile], the IC50 is 10 to 100 nM in assay [1] and below 10 nM in assay [2].
In the case of `CS(=O)(=O)c1ccc2nc(Nc3cnn(CCO)c3)c3[nH]ncc3c2c1` [Example 186, 2-(4-((8-(methylsulfonyl)-3H-pyrazolo[3,4-c]quinolin-4-yl)amino)-1H-pyrazol-1-yl)ethan-1-ol], the values for the IC50 in assay [1] and in assay [2] were 10 to 100 nM and below 10 nM, respectively.
Taken in the same sequence, the figures for `CC(C)Cn1cc(Nc2nc3ccc(S(C)(=O)=O)cc3c3cn[nH]c23)cn1` [Example 187, N-(1-isobutyl-1H-pyrazol-4-yl)-8-(methylsulfonyl)-3H-pyrazolo[3,4-c]quinolin-4-amine] were 10 to 100 nM and below 10 nM.
For `CC(C)(C)n1cc(Nc2nc3cc(S(C)(=O)=O)ccc3c3cn[nH]c23)cn1` [Example 188, N-(1-(tert-butyl)-1H-pyrazol-4-yl)-7-(methylsulfonyl)-3H-pyrazolo[3,4-c]quinolin-4-amine], the half-inhibitory concentration (IC50) lay in the range of 100 to 1000 nM in assay [1] and 10 to 100 nM in assay [2].
Taken in the same sequence, the figures for `CC(C)n1cc(Nc2nc3cc(S(C)(=O)=O)ccc3c3cn[nH]c23)cn1` [Example 189, N-(1-isopropyl-1H-pyrazol-4-yl)-7-(methylsulfonyl)-3H-pyrazolo[3,4-c]quinolin-4-amine] were 10 to 100 nM and 10 to 100 nM.
For the compound `COCCCn1cc(Nc2nc3cc(S(C)(=O)=O)ccc3c3cn[nH]c23)cn1` [Example 190, N-(1-(3-methoxypropyl)-1H-pyrazol-4-yl)-7-(methylsulfonyl)-3H-pyrazolo[3,4-c]quinolin-4-amine], the 50% inhibitory concentration (IC50) in assay [1] and in assay [2] was 10 to 100 nM in each case.
For `CC(C)(C#N)n1cc(Nc2nc3cc(S(C)(=O)=O)ccc3c3cn[nH]c23)cn1` [Example 191, 2-methyl-2-(4-((7-(methylsulfonyl)-3H-pyrazolo[3,4-c]quinolin-4-yl)amino)-1H-pyrazol-1-yl)propanenitrile], the 50% inhibitory concentration (IC50) in assay [1] was in the range of 100 to 1000 nM; in assay [2] it was 10 to 100 nM.
Consider `CC(C)Cn1cc(Nc2nc3cc(S(C)(=O)=O)ccc3c3cn[nH]c23)cn1` [Example 192, N-(1-isobutyl-1H-pyrazol-4-yl)-7-(methylsulfonyl)-3H-pyrazolo[3,4-c]quinolin-4-amine], for which the IC50 in assay [1] and in assay [2] was 10 to 100 nM in each case.
As to `CS(=O)(=O)c1ccc2c(c1)nc(Nc1cnn(CCO)c1)c1[nH]ncc12` [Example 193, 2-(4-((7-(methylsulfonyl)-3H-pyrazolo[3,4-c]quinolin-4-yl)amino)-1H-pyrazol-1-yl)ethan-1-ol], the IC50 is 10 to 100 nM in assay [1] and below 10 nM in assay [2].
In the case of `CC(C)(C)n1cc(Nc2nc3ccc(S(C)(=O)=O)cc3c3cn[nH]c23)cn1` [Example 195, N-(1-(tert-butyl)-1H-pyrazol-4-yl)-8-(methylsulfonyl)-3H-pyrazolo[3,4-c]quinolin-4-amine], the results for the half-inhibitory concentration (IC50) in assay [1] and in assay [2] were 10 to 100 nM and below 10 nM, respectively.
For `COc1cc(C(=O)N2CCOCC2)ccc1Nc1nc2ccc(S(C)(=O)=O)cc2c2cn[nH]c12` [Example 196, (3-methoxy-4-((8-(methylsulfonyl)-3H-pyrazolo[3,4-c]quinolin-4-yl)amino)phenyl)(morpholino)methanone] the same measures were 100 to 1000 nM and 10 to 100 nM.
Taken in the same sequence, the figures for `CS(=O)(=O)c1ccc2c(c1)nc(Nc1cnn(C3CC3)c1)c1[nH]ncc12` [Example 197, N-(1-cyclopropyl-1H-pyrazol-4-yl)-7-(methylsulfonyl)-3H-pyrazolo[3,4-c]quinolin-4-amine] were 10 to 100 nM and 10 to 100 nM.
In the case of `COc1cccc2nc(Nc3cnn(CC(C)C)c3)c3[nH]ncc3c12` [Example 198, N-(1-isobutyl-1H-pyrazol-4-yl)-9-methoxy-3H-pyrazolo[3,4-c]quinolin-4-amine], the half-inhibitory concentration (IC50) in assay [1] was 100 to 1000 nM; in assay [2], below 10 nM.
Taken in the same sequence, the figures for `COc1cccc2nc(Nc3cnn(CCO)c3)c3[nH]ncc3c12` [Example 199, 2-(4-((9-methoxy-3H-pyrazolo[3,4-c]quinolin-4-yl)amino)-1H-pyrazol-1-yl)ethan-1-ol] were 100 to 1000 nM and below 10 nM.
Take `COc1cccc2nc(Nc3cnn(C4CC4)c3)c3[nH]ncc3c12` [Example 201, N-(1-cyclopropyl-1H-pyrazol-4-yl)-9-methoxy-3H-pyrazolo[3,4-c]quinolin-4-amine]: the half-maximal inhibitory concentration (IC50) in assay [1] was 100 to 1000 nM; in assay [2], below 10 nM.
For `CS(=O)(=O)c1ccc2nc(Nc3cnn(C4CC4)c3)c3[nH]ncc3c2c1` [Example 203, N-(1-cyclopropyl-1H-pyrazol-4-yl)-8-(methylsulfonyl)-3H-pyrazolo[3,4-c]quinolin-4-amine] the same measures were below 10 nM and below 10 nM.
Taken in the same sequence, the figures for `COCC(C)(C)n1cc(Nc2nc3cccc(OC)c3c3cn[nH]c23)cn1` [Example 204, 9-methoxy-N-(1-(1-methoxy-2-methylpropan-2-yl)-1H-pyrazol-4-yl)-3H-pyrazolo[3,4-c]quinolin-4-amine] were 100 to 1000 nM and below 10 nM.
For `COc1cccc2nc(Nc3cnn(C4CCN(C(C)(C)C)CC4)c3)c3[nH]ncc3c12` [Example 206, N-(1-(1-(tert-butyl)piperidin-4-yl)-1H-pyrazol-4-yl)-9-methoxy-3H-pyrazolo[3,4-c]quinolin-4-amine] the same measures were 10 to 100 nM and below 10 nM.
As for `COCC(C)(C)n1cc(Nc2nc3ccc(S(C)(=O)=O)cc3c3cn[nH]c23)cn1` [Example 208, N-(1-(1-methoxy-2-methylpropan-2-yl)-1H-pyrazol-4-yl)-8-(methylsulfonyl)-3H-pyrazolo[3,4-c]quinolin-4-amine], the half-maximal inhibitory concentration (IC50) in assay [1] is 10 to 100 nM; in assay [2], below 10 nM.
